As usually defined, the melting point is the temperature of the solid-liquid transition. A word on the boiling point: it is the temperature of boiling at a given pressure.

Conditions in the first data set: not given
With `Cc1cc([N+](=O)[O-])c(N)c([N+](=O)[O-])c1`, the melting point worked out at 172 °C.

For `CCCCP(=O)(CCCC)CCCC`, the melting point was 64 °C.

Molecule `NC(=O)Nc1ccc(Oc2ccccc2)cc1` had a log10 Koc (L/kg) of 2.56.

Consider `CC1(C)C2CCC(C=O)C1C2` (stereo not drawn), for which the boiling point was determined as 220 °C.

`CCCC(=O)Cl` came in with a boiling point of 102 °C and a melting point of -89 °C.

With `O=C(O)COc1ccc(Cl)cc1CO`, the log10 vapour pressure (mmHg) is -6.18 and the melting point came to 141 °C.

Turning to `Cc1cocn1`, the boiling point came to 88 °C.

In the case of `CC1CCCCCCCCCCCCC(=O)C1` (stereo not drawn), the boiling point stood at 329 °C.

As for `O=C(c1ccccc1)C(O)c1ccccc1` (racemic), the boiling point stood at 344 °C, the log10 vapour pressure (mmHg) is -5.28 and the melting point turned out to be 137 °C.

Molecule `O=C1CCCCC1Cl` (stereo not drawn) registered a melting point of 23 °C.

Regarding `Nc1cc(Cl)cc(C(=O)O)c1Cl`, the boiling point was found to be 312 °C, the log10 Koc (L/kg) stood at 1.48, the melting point came out at 200 °C and the ready biodegradability result is recorded as “not readily biodegradable”.

In turn, `CC(=O)OC(OC(C)=O)c1cccc([N+](=O)[O-])c1` returned a melting point of 72 °C.

`CON(C)C(=O)Nc1ccc(Oc2ccc3c(c2)OC(C)(OC)CC3(C)C)cc1` (stereo not drawn): the melting point was 102 °C.

As to `CCN(CC)c1cccc2ccccc12`, the boiling point stood at 285 °C.

Regarding `N#CC1CC2C=CC1C2` (stereo not drawn), the melting point turned out to be 13 °C.

The molecule `CCCC(Cl)CCl` (stereo not drawn) returned a boiling point of 148 °C.

In the case of `Nc1cccc2c(O)nnc(O)c12`, the melting point amounted to 330 °C.

In the case of `CC1(C)C2CC3OC3(C)C1C2` (stereo not drawn), the boiling point turned out to be 185 °C and the log10 vapour pressure (mmHg) is -0.0872.

For the molecule `CC(C)(C)C#N`, the boiling point was determined as 106 °C, the log10 vapour pressure (mmHg) came out at 1.54 and the melting point was 15 °C.

Turning to `C=Cc1ccccc1C=C`, the ready biodegradability entry was “not readily biodegradable”.

The molecule `CN(C)O` had a log10 vapour pressure (mmHg) of 1.33 and a melting point of 108 °C.

`c1cn[nH]n1` gave a boiling point of 204 °C and a melting point of 23 °C.

The molecule `C1=CCCCC1` showed a boiling point of 82.9 °C, a log10 Henry constant (atm·m³/mol) of -1.34, a log10 Koa of 2.83 and a log10 vapour pressure (mmHg) of 1.95. For the same molecule, the melting point was -104 °C and the ready biodegradability result is on record as “not readily biodegradable”.

For `COc1cc(CCn2cccc2C(=O)O)cc(OC)c1OC`, the melting point was 132 °C.

`Clc1cc(Cl)c2cc(Cl)c(Cl)c(Cl)c2c1` registered a log10 Koa of 8.82 and a log10 vapour pressure (mmHg) of -5.68.

Molecule `O=C(O)CCCC(=O)c1ccccc1` displayed a melting point of 127 °C.

In the case of `C(=Cc1ccncc1)c1ccccc1`, the ready biodegradability result was “readily biodegradable”.

`CCN(CC)C(=O)C(Cl)=C(C)OP(=O)(OC)OC` had a log10 Koc (L/kg) of 0.85.

The molecule `Brc1cnc2ccccc2c1` registered a boiling point of 275 °C and a melting point of 13.3 °C.

Take `CCN(CC)c1nc(Cl)nc(N(CC)CC)n1`: the melting point is 27 °C.

`CC(C)=NOCCOC(=O)[C@@H](C)Oc1ccc(Oc2cnc3cc(Cl)ccc3n2)cc1` registered a log10 vapour pressure (mmHg) of -11.5 and a melting point of 66.3 °C.

Molecule `Nc1c([N+](=O)[O-])cc(Cl)cc1[N+](=O)[O-]` showed a melting point of 147 °C.

For the molecule `O=Cc1ccc(O)c([N+](=O)[O-])c1`, the log10 vapour pressure (mmHg) was -3.05 and the melting point was determined as 141 °C.

`COC1CCC=CO1` (stereo not drawn) registered a boiling point of 118 °C, a log10 vapour pressure (mmHg) of 1.04 and a melting point of 16 °C.

With `Cc1n[nH]c(C)c1Cl`, the boiling point worked out at 221 °C and the melting point is 118 °C.

Turning to `Cn1ccccc1=S`, the melting point came out at 89.5 °C.

As to `COc1cccc([N+](=O)[O-])c1`, the boiling point came to 258 °C, the melting point was determined as 38.5 °C and the ready biodegradability result was “not readily biodegradable”.

In turn, `CC(=O)O` gave a boiling point of 118 °C, a log10 Henry constant (atm·m³/mol) of -7, a log10 vapour pressure (mmHg) of 1.2 and a melting point of 16.6 °C. The ready biodegradability entry is on record as “readily biodegradable”.

Molecule `CC1CC(=O)C(C)(C)C1` (stereo not drawn) had a boiling point of 158 °C and a melting point of -40.6 °C.

`O=C(NC(=O)c1c(F)cccc1F)Nc1ccc(CO/N=C(\c2ccc(Cl)cc2)C2CC2)cc1` registered a melting point of 144 °C.

As to `CC(=O)O[C@@H](C(=O)O)c1ccccc1`, the melting point was determined as 97 °C.

As to `CN1[C@@H]2CC[C@H]1C[C@@H](O)C2`, the boiling point came out at 237 °C and the melting point is 86.5 °C.

Molecule `CCc1ccc(C)c(C)c1` displayed a boiling point of 190 °C, a log10 biodegradation half-life (days) of 0.699, a log10 vapour pressure (mmHg) of -0.126 and a melting point of -66.9 °C.

Molecule `CC(Br)CCBr` (stereo not drawn) displayed a boiling point of 174 °C.

The molecule `NCC(F)(F)C(F)(F)F` displayed a boiling point of 49 °C.

In the case of `CCOC(C)=O`, the boiling point worked out at 77.1 °C, the log10 Henry constant (atm·m³/mol) is -3.87, the log10 Koa is 2.7 and the log10 vapour pressure (mmHg) worked out at 1.97. Moreover, the melting point is -83.6 °C and the ready biodegradability entry was “readily biodegradable”.

With `CCCC(C(N)=O)n1nnc2ccccc21` (stereo not drawn), the melting point turned out to be 125 °C.

In turn, `CCN(CC)C(=O)COC(=O)c1ccccc1` yielded a melting point of 72.5 °C.

As to `CC1=CCCCCC1`, the boiling point came out at 136 °C.

`O=c1[nH]cc(F)c(=O)[nH]1` came in with a melting point of 283 °C.

Turning to `CCSc1nnc(C(C)(C)C)c(=O)n1N`, the log10 vapour pressure (mmHg) is -5.12 and the melting point was found to be 95 °C.

Molecule `CCC[C@H]1CCCCN1` returned a boiling point of 166 °C.

`CC#CC`: the boiling point amounted to 26.9 °C, the log10 vapour pressure (mmHg) turned out to be 2.85, the melting point was -32.3 °C and the ready biodegradability result was “not readily biodegradable”.

Take `CCCCc1c(C)nc(NCC)nc1O`: the log10 vapour pressure (mmHg) is -5.7 and the melting point was 160 °C.

For `CCOC(=O)c1ccccn1`, the boiling point turned out to be 243 °C and the melting point was found to be 1 °C.

The molecule `C[N+](C)(C)CCOC(Cc1ccccc1)c1ccccc1.[Br-]` (stereo not drawn) gave a melting point of 146 °C.

For `O=C(Oc1ccccc1C(=O)O)c1ccccc1O`, the melting point was 147 °C.

The molecule `CCc1ccccn1` came in with a boiling point of 149 °C, a log10 Henry constant (atm·m³/mol) of -4.78, a log10 vapour pressure (mmHg) of 0.689 and a melting point of -63.1 °C.

Turning to `C=C[Si](C)(C)Cl`, the boiling point is 83.5 °C.

Molecule `Cc1nc([N+](=O)[O-])cn1-c1ccc([N+](=O)[O-])cc1` showed a melting point of 186 °C.

Turning to `CCOC(=O)NC`, the boiling point was 170 °C and the log10 vapour pressure (mmHg) was -0.0435.

With `CN(C)c1ccc(N=C2C=CC(=O)C=C2)cc1`, the melting point is 134 °C.

As to `O=c1cccccc1O`, the melting point amounted to 50.8 °C.

The molecule `CCOC(=O)C1CC=CCC1` (stereo not drawn) displayed a boiling point of 194 °C.

As for `Oc1cc(O)cc(-c2cc(O)cc(O)c2)c1`, the melting point came to 310 °C.

As to `CC1(c2ccccc2)CCOCO1` (stereo not drawn), the boiling point worked out at 256 °C and the melting point was determined as 37.5 °C.

As to `CCCCCCCCCCCC(=O)OOC(=O)CCCCCCCCCCC`, the melting point is 49 °C and the ready biodegradability result was “readily biodegradable”.

`FC(Cl)C(Cl)Cl` (stereo not drawn) gave a boiling point of 102 °C.

On to `C/C=C\C`, for which the boiling point came out at 2.25 °C, the log10 Henry constant (atm·m³/mol) was -0.643 and the melting point is -122 °C.

Take `Clc1ccc(C(Cl)(Cl)Cl)c(Cl)c1`: the ready biodegradability entry is reported as “not readily biodegradable”.

In the case of `Nc1ccc(-c2ccc(Cl)cc2)cc1`, the melting point amounted to 134 °C.

`CCNc1nc(NC(C)C)nc(SC)n1` displayed a boiling point of 345 °C, a log10 Koc (L/kg) of 2.59, a log10 vapour pressure (mmHg) of -5.56 and a melting point of 88 °C. The ready biodegradability entry is reported as “not readily biodegradable”.

Consider `CNC(=O)ON=C(C)SC`, for which the log10 Koc (L/kg) came to 1.3, the log10 vapour pressure (mmHg) is -5.27 and the melting point was found to be 78 °C.

As for `O=C(O)C(F)(F)C(F)(F)C(F)(F)C(F)(F)C(F)(F)C(F)(F)C(F)(F)F`, the boiling point is 189 °C, the log10 vapour pressure (mmHg) was -0.28, the melting point was determined as 55 °C and the ready biodegradability result was “not readily biodegradable”.

Regarding `COC(=O)CS`, the boiling point came to 148 °C and the log10 vapour pressure (mmHg) was determined as 0.477.

With `CC(CN1C(=O)c2cccnc2Nc2ccccc21)N(C)C` (stereo not drawn), the melting point was determined as 122 °C.

Staying with this data set, now noted: fish.
For `COc1cccc([N+](=O)[O-])c1`, the log10 BCF stood at 0.78 and the log10 biotransformation half-life (days) was -1.04.

Molecule `CCCCCCC1CCCC(C)C1` (stereo not drawn) came in with a log10 biotransformation half-life (days) of 0.97.

(Values after the OPERA property sets (Mansouri et al. 2018).)
